Laboratory results from patent US11065240B2, “Drug combinations to treat multiple myeloma” (Exelixis, Inc., priority 2014, dated 2021).

Legend:
[1] = system: 5TGM1 mouse myeloma cells; assay: 5TGM1 murine multiple myeloma model, study 2: overall survival, alone or in combination; type: in vivo; conditions: for prolongation of overall survival (OS) compared to vehicle, statistical significance / median survival time: bortezomib 0.5 mg/kg ip twice a week, cabozantinib 10 mg/kg PO QD; for median survival time: vehicle 36 d, FIG. 1
Protocol: Cabozantinib (XL184) is obtained from the Exelixis in powder form. It is dissolved in sterile water to a concentration of 1 mg/ml for dosing at 10 mg/kg or 30 mg/kg. The dosing solution is prepared daily within one hour before dosing. The undissolved test compound will be stored at ambient or room temperature in a dry environment such as in a dessicator. The test compound is administered daily by oral gavage.
Bortezomib is obtained from LC Laboratories (Boston, Mass., USA) in powder form and dissolved in EtOH. The stock solution is stored at −20° C. The bortezomib dosing solutions are prepared fresh for every dosing as follows: 25 μl of the stock solution of 25 mg/ml of bortezomib (LC Laboratories, Boston, Mass., USA) in EtOH and 25 μl of EtOH is diluted in 3.61 ml of 0.9% NaCl to obtain the concentration of 0.17 mg/ml. The dosing volume is 3 ml/kg, resulting in the dose 0.5 mg/kg. Bortezomib is administered intraperitoneally twice a week.
5TGM1 mouse multiple myeloma cells are obtained from the Department of Molecular Medicine, University of Texas Health Science Center at San Antonio. Cell culturing is performed according to standard procedures. 5TGM1 mouse myeloma cells (2×10^6 cells in 0.1 ml of PBS) are inoculated into the tail vein of the mice at day 0. Viability of the cells will be determined before and after the inoculations. Cancer cell inoculation will cause the mice to develop a bone disease typical for multiple myeloma.
Statistical analysis will be performed with statistical software R (version 2.14.0 or newer, www.r-project.org) or OriginPro (version 8.6 or newer, OriginLab, Northampton, Mass., USA). The mean and standard deviation of each parameter will be determined. All statistical analyses will be performed as two-sided tests. Normal distribution and homogeneity of variance will be checked before further analyses. In case of violating these assumptions, either log transformation or other appropriate transformation (e.g. square root, reciprocal) will be applied. If the assumptions are fulfilled as such or after transformation, Oneway ANOVA will be used for end-point parameters to assess whether the values obtained between groups are statistically different (with p<0.05) followed by Tukey test for comparison against the control group. If the assumptions are not fulfilled even after the transformations described above, rank-transformation will be applied and the non-parametric Kruskal-Wallis test followed by Mann-Whitney U-test will be used. Linear mixed effects model will be used for repeated measurements like biochemical markers.
Female C57BL/KaLwRij mice were allocated to treatment groups (n=15 per group) with equivalent average body weights. Four experimental groups were utilized in each of 2 studies: a vehicle control group, and groups receiving single agent bortezomib (0.5 mg/kg ip twice a week) or cabozantinib (10 mg/kg, PO QD). Study 1 also included a higher dose cabozantinib group (30 mg/kg, PO QD), and study 2 included a combination group: bortezomib (0.5 mg/kg ip twice a week) plus cabozantinib (10 mg/kg, PO QD). […]
On day 0, animals were inoculated with 5TGM1 mouse myeloma cells by IV administration. […] Body weights were determined twice a week and blood samples were collected on days—1, 15, 22, and 34 for analysis of paraprotein (IgG2b) and TRACP 5b. In study 1 the development of osteolytic lesions was detected by radiography at the end of the study. […]

[2] = system: 5TGM1 mouse myeloma cells; assay: 5TGM1 murine multiple myeloma model, study 1: bone lesions and tumor burden; type: in vivo; conditions: for bone protective properties/effects: cabozantinib 10 or 30 mg/kg PO QD; for frequency of soft tissue lesions: cabozantinib both doses (10 and 30 mg/kg PO QD)
Protocol: Cabozantinib (XL184) is obtained from the Exelixis in powder form. It is dissolved in sterile water to a concentration of 1 mg/ml for dosing at 10 mg/kg or 30 mg/kg. The dosing solution is prepared daily within one hour before dosing. The undissolved test compound will be stored at ambient or room temperature in a dry environment such as in a dessicator. The test compound is administered daily by oral gavage. Bortezomib is obtained from LC Laboratories (Boston, Mass., USA) in powder form and dissolved in EtOH. The stock solution is stored at -20° C. The bortezomib dosing solutions are prepared fresh for every dosing as follows: 25 μl of the stock solution of 25 mg/ml of bortezomib (LC Laboratories, Boston, Mass., USA) in EtOH and 25 μl of EtOH is diluted in 3.61 ml of 0.9% NaCl to obtain the concentration of 0.17 mg/ml. The dosing volume is 3 ml/kg, resulting in the dose 0.5 mg/kg. Bortezomib is administered intraperitoneally twice a week. 5TGM1 mouse multiple myeloma cells are obtained from the Department of Molecular Medicine, University of Texas Health Science Center at San Antonio. Cell culturing is performed according to standard procedures. 5TGM1 mouse myeloma cells (2×10^6 cells in 0.1 ml of PBS) are inoculated into the tail vein of the mice at day 0. Viability of the cells will be determined before and after the inoculations. Cancer cell inoculation will cause the mice to develop a bone disease typical for multiple myeloma. Blood samples will be collected from the saphenous vein before the inoculation of cancer cells, at days 15, 22, 35 and at sacrifice. The serum samples will be prepared within one hour of sampling, and stored at -70° C. Serum paraprotein IgG2b will be analyzed using mouse IgG2b ELISA quantitation kit (Bethyl Laboratories Inc, Montgomery, Tex., USA). Serum […] activity and PINP concentration will be analyzed using Mouse TRAP and Mouse PINP kits (IDS, Boldon, UK). The development of the myeloma bone disease is monitored by x-ray radiography at day 35. Animals will be anesthethized by isoflurane and x-rayed in a prone position with the Faxitron Specimen Radiographic System MX-20 D12 (Faxitron Corp. Illinois, USA) using Faxitron Dicom 3.0-software. At least one radiograph (both hind limbs) per animal will be taken on each x-ray occasion (31 kV, 10 seconds, magnification 2×). The lesion number and lesion area in hind limbs will be determined from the images with MetaMorph image analysis software. Statistical analysis will be performed with statistical software R (version 2.14.0 or newer, www.r-project.org) or OriginPro (version 8.6 or newer, OriginLab, Northampton, Mass., USA). The mean and standard deviation of each parameter will be determined. All statistical analyses will be performed as two-sided tests. Normal distribution and homogeneity of variance will be checked before further analyses. In case of violating these assumptions, either log transformation or other appropriate transformation (e.g. square root, reciprocal) will be applied. If the assumptions are fulfilled as such or after transformation, Oneway ANOVA will be used for end-point parameters to assess whether the values obtained between groups are statistically different (with p<0.05) followed by Tukey test for comparison against the control group. If the assumptions are not fulfilled even after the transformations described above, rank-transformation will be applied and the non-parametric Kruskal-Wallis test followed by Mann-Whitney U-test will be used. Linear mixed effects model will be used for repeated measurements like biochemical markers. Female C57BL/KaLwRij mice were allocated to treatment groups (n=15 per group) with equivalent average body weights. Four experimental groups were utilized in each of 2 studies: a vehicle control group, and groups receiving single agent bortezomib (0.5 mg/kg ip twice a week) or cabozantinib (10 mg/kg, PO QD). […]

[3] = study 1, bortezomib 0.5 mg/kg ip twice a week
[4] = study 1, 30 mg/kg PO QD, radiography at end of study
[5] = study 1, both the 10 and 30 mg/kg doses PO QD

Row | Structure (SMILES) | prolongation of overall survival (OS) compared to vehicle, statistical significance [1] | median survival time [1] | bone protective properties/effects [2, 3] | frequency of soft tissue lesions [2, 3] | serum IgG2b levels ([2]; study 1, female C57BL/KaLwRij mice, bortezomib 0.5 mg/kg ip twice a week, vs vehicle) | prolongation of overall survival (conclusion, comparator not stated) ([1]; conclusions) | bone-protective and anti-tumor effects (conclusion) ([2]; murine model of MM, conclusions) | mean area of osteolytic lesions [2, 4] | total area of osteolytic lesions [2, 4] | necrotic tumor area in bone ([2]; study 1, 10 and 30 mg/kg PO QD) | start of the rise in serum IgG2b ([2]; study 1, both cabozantinib-treated groups (10 and 30 mg/kg), vs vehicle control) | relative IgG2b at sacrifice ([2]; study 1, both cabozantinib-treated groups, vs vehicle control) | osteoclast counts at the tumor-bone interface [2, 5] | serum TRACP 5b values [2, 5] | relative bone area ([2]; study 1, histomorphometry, vs control)
1 | CC(C)C[C@H](NC(=O)[C@H](Cc1ccccc1)NC(=O)c1cnccn1)B(O)O [bortezomib, reference compound] | not | 43 days | did not show bone protective properties | decreased | reduced | – | – | – | – | – | – | – | – | – | –
2 | COc1cc2nccc(Oc3ccc(NC(=O)C4(C(=O)Nc5ccc(F)cc5)CC4)cc3)c2cc1OC [cabozantinib, N-(4-{[6,7-bis(methyloxy)quinolin-4-yl]oxy}phenyl)-N′-(4-fluorophenyl)cyclopropane-1,1-dicarboxamide] | statistically significant | 48 days | exhibited bone protective effects | decreased | – | statistically-significant prolongation | showed both bone-protective and anti-tumor effects | reduced | reduced | dose dependently increased | started earlier than vehicle control | a significant difference was not observed | reduced | reduced | did not differ from control
